# Legend:
# [1] = system: ECHCG; experiment: Post-emergence action against ECHCG; format: in vivo, Echinochloa crus-galli; conditions: post-emergence, dosage 80 g/ha, visual assessment about 3 weeks after treatment vs untreated controls
# Method in brief: (§1)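 Post-emergence foliar spray on greenhouse plants at the one-leaf stage, using wettable-powder or emulsion-concentrate formulations in water (600 to […], plus 0.2% wetting agent). Damage scored by eye roughly 3 weeks later against untreated plants: 0% = like control, 100% = dead.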
# [2] = system: POLCO; experiment: Pre-emergence action against POLCO; format: in vivo, Polygonum convolvulus; conditions: Dosage 320 g/ha, pre-emergence
# Method in brief: (§2)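 Seeds sown in sandy loam in wood-fiber pots and covered with soil. Greenhouse growth; visual damage scored after 3 weeks versus untreated controls (100% = dead, 0% = like control).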
# [3] = system: ECHCG; experiment: Pre-emergence action against ECHCG; format: in vivo, Echinochloa crus-galli; conditions: pre-emergence, dosage 320 g/ha, scored visually after 3 weeks vs untreated controls
# Method in brief: as §2
# [4] = system: AVEFA; experiment: Pre-emergence action against AVEFA; format: in vivo, Avena fatua; conditions: dosage 320 g/ha, scored visually after 3 weeks vs untreated controls
# Method in brief: as §2
# [5] = system: VERPE; experiment: Pre-emergence action against VERPE; format: in vivo, Veronica persica; conditions: Dosage 320 g/ha, pre-emergence
# Method in brief: as §2
# [6] = system: ABUTH; experiment: Pre-emergence action against ABUTH; format: in vivo, Abutilon theophrasti; conditions: pre-emergence, dosage 320 g/ha, scored visually after 3 weeks vs untreated controls
# Method in brief: as §2
# [7] = system: ALOMY; experiment: Post-emergence action against ALOMY; format: in vivo, Alopecurus myosuroides; conditions: Dosage 80 g/ha, post-emergence
# Method in brief: as §1
# [8] = system: LOLRI; experiment: Post-emergence action against LOLRI; format: in vivo, Lolium rigidum; conditions: dosage 80 g/ha, visual assessment about 3 weeks after treatment vs untreated controls
# Procedure: Seeds of monocotyledonous and dicotyledonous weed and crop plants are laid out in sandy loam soil in wood-fiber pots, covered with soil and cultivated in a greenhouse under good growth conditions. 2 to 3 weeks after sowing, the test plants are treated at the one-leaf stage. The compounds of the invention, formulated in the form of wettable powders (WP) or as emulsion concentrates (EC), are then sprayed onto the green parts of the plants in the form of an aqueous suspension or emulsion at a water application rate equating to […], with addition of 0.2% wetting agent. After the test plants have been left to stand in the greenhouse under optimal growth conditions for about 3 weeks, the action of the preparations is assessed visually in comparison to untreated controls (herbicidal action in percent (%): 100% activity=the plants have died, 0% activity=like control plants). […] At the same time, inventive compounds leave Gramineae crops such as barley, wheat, rye, millet/Sorghum, corn or rice virtually undamaged when applied post-emergence, even at high active ingredient dosages. In addition, some substances are also harmless to dicotyledonous crops such as soya, cotton, oilseed rape, sugar beet or potatoes. Some of the compounds according to the invention have high selectivity and are therefore suitable for controlling unwanted vegetation in agricultural crops by the post-emergence method. The data of Tables B18 to B34 below illustrate, in an exemplary manner, the […] herbicidal action of the compounds according to the invention, the herbicidal activity being stated in percent.
# [9] = system: SETVI; experiment: Pre-emergence action against SETVI; format: in vivo, Setaria viridis; conditions: pre-emergence, dosage 320 g/ha, scored visually after 3 weeks vs untreated controls
# Method in brief: as §2
# [10] = system: SETVI; experiment: Post-emergence action against SETVI; format: in vivo, Setaria viridis; conditions: post-emergence, dosage 80 g/ha, visual assessment about 3 weeks after treatment vs untreated controls
# Method in brief: as §1
# [11] = system: MATIN; experiment: Post-emergence action against MATIN; format: in vivo, Matricaria inodora; conditions: post-emergence, dosage 80 g/ha, visual assessment about 3 weeks after treatment vs untreated controls
# Method in brief: as §1
# [12] = system: CYPES; experiment: Pre-emergence action against CYPES; format: in vivo, Cyperus esculentus; conditions: pre-emergence, dosage 320 g/ha, scored visually after 3 weeks vs untreated controls
# Method in brief: as §2
# [13] = system: LOLRI; experiment: Pre-emergence action against LOLRI; format: in vivo, Lolium rigidum; conditions: dosage 320 g/ha, scored visually after 3 weeks vs untreated controls
# Method in brief: as §2
# [14] = system: ABUTH; experiment: Post-emergence action against ABUTH; format: in vivo, Abutilon theophrasti; conditions: post-emergence, dosage 80 g/ha, visual assessment about 3 weeks after treatment vs untreated controls
# Method in brief: as §1
# [15] = system: VERPE; experiment: Post-emergence action against VERPE; format: in vivo, Veronica persica; conditions: dosage 80 g/ha
# Method in brief: as §1
# [16] = system: PHBPU; experiment: Pre-emergence action against PHBPU; format: in vivo, Pharbitis purpurea; conditions: Dosage 320 g/ha, pre-emergence
# Method in brief: as §2
# [17] = system: ALOMY; experiment: Pre-emergence action against ALOMY; format: in vivo, Alopecurus myosuroides; conditions: dosage 320 g/ha, pre-emergence, scored visually after 3 weeks vs untreated controls, 100% = plants have died, 0% = like control plants
# Method in brief: as §2
# [18] = system: VIOTR; experiment: Post-emergence action against VIOTR; format: in vivo, Viola tricolor; conditions: post-emergence, dosage 80 g/ha
# Method in brief: as §1
# [19] = system: AMARE; experiment: Post-emergence action against AMARE; format: in vivo, Amaranthus retroflexus; conditions: post-emergence, dosage 80 g/ha, visual assessment about 3 weeks after treatment vs untreated controls
# Method in brief: as §1
# [20] = system: AMARE; experiment: Pre-emergence action against AMARE; format: in vivo, Amaranthus retroflexus; conditions: pre-emergence, dosage 320 g/ha, scored visually after 3 weeks vs untreated controls
# Method in brief: as §2
# [21] = system: VIOTR; experiment: Pre-emergence action against VIOTR; format: in vivo, Viola tricolor; conditions: Dosage 320 g/ha, pre-emergence
# Method in brief: as §2
# [22] = system: PHBPU; experiment: Post-emergence action against PHBPU; format: in vivo, Pharbitis purpurea; conditions: post-emergence, dosage 80 g/ha
# Method in brief: as §1
# [23] = system: STEME; experiment: Pre-emergence action against STEME; format: in vivo, Stellaria media; conditions: Dosage 320 g/ha, pre-emergence
# Method in brief: as §2
# [24] = system: STEME; experiment: Post-emergence action against STEME; format: in vivo, Stellaria media; conditions: post-emergence, dosage 80 g/ha
# Method in brief: as §1
# [25] = system: MATIN; experiment: Pre-emergence action against MATIN; format: in vivo, Matricaria inodora; conditions: Dosage 320 g/ha, pre-emergence
# Method in brief: as §2
# [26] = system: CYPES; experiment: Post-emergence action against CYPES; format: in vivo, Cyperus esculentus; conditions: Cyperus esculentus, 504 h; post-emergence, dosage 80 g/ha, visual assessment about 3 weeks after treatment vs untreated controls; read-out: Post-emergence action against CYPES (herbicidal action in percent)
# Method in brief: as §1
compound,measurement,setting,value
CCn1nnnc1NC(=O)c1ccc(C(F)(F)F)c(C(=O)C2CC2C)c1Cl (stereo not shown) [2-148],Post-emergence action against ECHCG (herbicidal action in percent),[1],90%
same,Pre-emergence action against POLCO,[2],90%
same,Pre-emergence action against ECHCG (herbicidal activity),[3],100%
same,Pre-emergence action against AVEFA (herbicidal activity),[4],90%
same,Pre-emergence action against VERPE,[5],100%
same,Pre-emergence action against ABUTH (herbicidal activity),[6],100%
same,Post-emergence action against ALOMY,[7],90%
same,Post-emergence action against LOLRI (herbicidal action in percent),[8],80%
same,"SETVI (Table B8, pre-emergence herbicidal activity)",[9],100%
same,Post-emergence action against SETVI (herbicidal action in percent),[10],90%
same,Post-emergence action against MATIN (herbicidal action in percent),[11],90%
same,Pre-emergence action against CYPES (herbicidal activity),[12],90%
same,Pre-emergence action against LOLRI (herbicidal activity),[13],90%
same,Post-emergence action against ABUTH (herbicidal action in percent),[14],90%
same,Post-emergence action against VERPE,[15],90
same,Pre-emergence action against PHBPU,[16],90%
same,Pre-emergence action against ALOMY (herbicidal activity in percent),[17],90%
same,Post-emergence action against VIOTR,[18],90
same,Post-emergence action against AMARE (herbicidal action in percent),[19],90%
same,Pre-emergence action against AMARE (herbicidal activity),[20],100%
same,Pre-emergence action against VIOTR,[21],100%
same,Post-emergence action against PHBPU,[22],90
same,Pre-emergence action against STEME,[23],90%
same,Post-emergence action against STEME,[24],90
same,Pre-emergence action against MATIN,[25],100%
CC(C)C(=O)c1c(C(F)(F)F)ccc(C(=O)Nc2nnnn2C)c1Cl [1-140],pest or weed control at 80 g/ha,"[1]; Echinochloa crus-galli, 504 h, read-out: Post-emergence action against ECHCG (herbicidal action in percent)",100%
same,pest or weed control at 320 g/ha,"[2]; Fallopia convolvulus, 504 h",80%
same,pest or weed control at 320 g/ha,"[3]; Echinochloa crus-galli, 504 h, read-out: Pre-emergence action against ECHCG (herbicidal activity)",100%
same,pest or weed control at 320 g/ha,"[4]; Avena fatua, 504 h, read-out: Pre-emergence action against AVEFA (herbicidal activity)",80%
same,pest or weed control at 320 g/ha,"[5]; Veronica persica, 504 h",100%
same,pest or weed control at 320 g/ha,"[6]; Abutilon theophrasti, 504 h, read-out: Pre-emergence action against ABUTH (herbicidal activity)",100%
same,pest or weed control at 80 g/ha,"[8]; Lolium rigidum, 504 h, read-out: Post-emergence action against LOLRI (herbicidal action in percent)",80%
same,pest or weed control at 320 g/ha,"[9]; Setaria viridis, 504 h, read-out: SETVI (Table B8, pre-emergence herbicidal activity)",100%
same,pest or weed control at 80 g/ha,"[10]; Setaria viridis, 504 h, read-out: Post-emergence action against SETVI (herbicidal action in percent)",100%
same,pest or weed control at 80 g/ha,"[11]; Tripleurospermum inodorum, 504 h, read-out: Post-emergence action against MATIN (herbicidal action in percent)",100%
same,pest or weed control at 320 g/ha,"[12]; Cyperus esculentus, 504 h, read-out: Pre-emergence action against CYPES (herbicidal activity)",90%
same,pest or weed control at 320 g/ha,"[13]; Lolium rigidum, 504 h, read-out: Pre-emergence action against LOLRI (herbicidal activity)",100%
same,pest or weed control at 80 g/ha,"[14]; Abutilon theophrasti, 504 h, read-out: Post-emergence action against ABUTH (herbicidal action in percent)",100%
same,pest or weed control at 80 g/ha,"[15]; Veronica persica, 504 h",80%
same,pest or weed control at 320 g/ha,"[17]; Alopecurus myosuroides, 504 h, read-out: Pre-emergence action against ALOMY (herbicidal activity in percent)",100%
same,pest or weed control at 80 g/ha,[26],90%
same,pest or weed control at 80 g/ha,"[18]; Viola tricolor, 504 h",100%
same,pest or weed control at 80 g/ha,"[19]; Amaranthus retroflexus, 504 h, read-out: Post-emergence action against AMARE (herbicidal action in percent)",90%
same,pest or weed control at 320 g/ha,"[20]; Amaranthus retroflexus, 504 h, read-out: Pre-emergence action against AMARE (herbicidal activity)",100%
same,pest or weed control at 320 g/ha,"[21]; Viola tricolor, 504 h",100%
same,pest or weed control at 80 g/ha,"[22]; Ipomoea purpurea, 504 h",90%
same,pest or weed control at 320 g/ha,"[23]; Stellaria media, 504 h",100%
same,pest or weed control at 80 g/ha,"[24]; Stellaria media, 504 h",100%
same,pest or weed control at 320 g/ha,"[25]; Tripleurospermum inodorum, 504 h",100%

# From US11051515B2, “3-acyl-benzamides and their use as herbicides” (Bayer Aktiengesellschaft, priority 2017, dated 2021)
